# Data taken from patent publication US20240334933A1, “USE OF COMPOSITIONS WITH ETHOFUMESATE AND BIXLOZONE IN WHEAT CROPS” (BAYER AKTIENGESELLSCHAFT, priority 2021, published 2024).
# Like-named read-outs stand apart in the source and are kept apart here.
# Columns and labels:
# [1] = system: volunteer wheat (Triticum aestivum L.); conditions: cited from earlier work
# [2] = system: annual bluegrass (Poa annua L.); conditions: pre-emergence or early post-emergence at 0.8 to 4.5 kg/ha; cited from earlier work
# [3] = system: barley and wheat; conditions: greenhouse studies; cited from earlier work
# [4] = system: corn; conditions: applied 3 weeks before planting at rates of 2.2 to 9.0 kg/ha; cited from earlier work
# [5] = system: wheat crop plants; experiment: Own experiments: safening effect of mefenpyr-diethyl used with flufenacet; assay type: in vivo; conditions: used with flufenacet (WSSA group 15 herbicide)
Compound,"control of volunteer wheat ([1]; 1.7 kg/ha or more, wheat in the one- to three-leaf stage)",control of volunteer wheat ([1]; applied pre-emergence soon after planting or at the end of November to wheat in the four-leaf to four-tiller stage),control of annual bluegrass [2],susceptibility of barley and wheat to soil residues relative to corn [3],corn yields [4],safening effect in wheat crop plants [5]
"CCOC1Oc2ccc(OS(C)(=O)=O)cc2C1(C)C (stereo not drawn) [Ethofumesate, 2-ethoxy-2,3-dihydro-3,3-dimethylbenzofuran-5-yl methanesulfonate]",eliminated the wheat,Wheat was not eliminated,eliminated annual bluegrass,about 10 times,reduced in proportion to the rate,–
"CCOC(=O)C1=NN(c2ccc(Cl)cc2Cl)C(C)(C(=O)OCC)C1 (stereo not drawn) [Mefenpyr-diethyl, ethyl 1-(2,4-dichlorophenyl)-5-(ethoxycarbonyl)-5-methyl-2-pyrazoline-3-carboxylate]",–,–,–,–,–,does not have a safening effect
